The source of these data is ChEMBL document CHEMBL3627603, “Helical peptide-polyamine and -polyether conjugates as synthetic ionophores” (Bioorg Med Chem, 2015).

One data set deals with Cryptococcus neoformans. Put plainly: Antifungal activity against Cryptococcus neoformans clinical isolate after 48 hrs by broth microdilution method. The format is functional.
Data set [1] can be described thus: Ionophoric activity across large unilamellar vesicles containing 95:5 egg yolk phosphatidylcholine and phosphatidylglycerol assessed as apparent first order rate constant for Na+ transport at 1% of total concentration of lipids at 25 degC measured every 30 mins over 14 hrs by 23Na+ NMR analysis. The format is ADME.
Data set [2] is described as follows: Ionophoric activity across large unilamellar vesicles containing 95:5 egg yolk phosphatidylcholine and phosphatidylglycerol assessed as apparent first order rate constant for H+ transport at 2.5% of total concentration of lipids at 25 degC measured after 20 mins by HPTS-based fluorescence assay (reference value: 2 x 10^-4/s). The data set is classed as ADME.

Data set [3] can be described thus: Ionophoric activity across large unilamellar vesicles containing 95:5 egg yolk phosphatidylcholine and phosphatidylglycerol assessed as apparent first order rate constant for H+ transport at 1% of total concentration of lipids at 25 degC measured after 20 mins by HPTS-based fluorescence assay (reference value: 2 x 10^-4/s). The data set is classed as ADME.
A short description of data set [4]: Induction of lysis of large unilamellar vesicles containing 95:5 egg yolk phosphatidylcholine and phosphatidylglycerol assessed as calcein release at 0.22 mM treated at 400 to 1600 secs by fluorometric analysis. The data set is classed as functional.
Data set [5] is described as follows: Ionophoric activity across large unilamellar vesicles containing 95:5 egg yolk phosphatidylcholine and phosphatidylglycerol assessed as apparent first order rate constant for H+ transport at 1.5% of total concentration of lipids at 25 degC measured after 20 mins by HPTS-based fluorescence assay (reference value: 2 x 10^-4/s). The data set is classed as ADME.

For another data set, the system named is Pseudomonas aeruginosa. Put plainly: Antibacterial activity against Pseudomonas aeruginosa ATCC 27853 after 24 hrs by broth microdilution method. The data set is classed as functional. The following applies: ATCC 27853, 24 h.
Another data set has as its system Candida albicans. Nature of the data set: Antifungal activity against Candida albicans clinical isolate after 48 hrs by broth microdilution method. The data set is classed as functional.
Data set [6] concerns Escherichia coli. Nature of the data set: Induction of outer membrane permeabilization of Escherichia coli ML-35 pYC constitutively expressing cytoplasmic beta-galactosidase/periplasmic beta-lastamase assessed as CENTA hydrolysis at 64 uM by microplate reader analysis. The data set is classed as functional, organism-based.
The subject of data set [7] is Staphylococcus aureus. Nature of the data set: Antibacterial activity against methicillin-resistant Staphylococcus aureus 16 clinical isolate after 24 hrs by broth microdilution method. Particulars: Staphylococcus aureus, 16, 24 h. The format is functional.
The subject of data set [8] is Staphylococcus aureus. Put plainly: Antibacterial activity against Staphylococcus aureus 34 clinical isolate after 24 hrs by broth microdilution method. The data set is classed as functional. Particulars: Staphylococcus aureus, 34, 24 h.
Data set [9] in a line: Ionophoric activity across large unilamellar vesicles containing 95:5 egg yolk phosphatidylcholine and phosphatidylglycerol assessed as apparent first order rate constant for H+ transport at 3% of total concentration of lipids at 25 degC measured after 20 mins by HPTS-based fluorescence assay (reference value: 2 x 10^-4/s). The data set is classed as ADME.
Data set [10] is described as follows: Ionophoric activity across large unilamellar vesicles containing 95:5 egg yolk phosphatidylcholine and phosphatidylglycerol assessed as apparent first order rate constant for H+ transport at 0.5% of total concentration of lipids at 25 degC measured after 20 mins by HPTS-based fluorescence assay (reference value: 2 x 10^-4/s). The format is ADME.
The subject of data set [11] is Escherichia coli. Nature of the data set: Antibacterial activity against Escherichia coli ATCC 25922 after 24 hrs by broth microdilution method. Particulars: ATCC 25922, 24 h. The format is functional.
The nature of data set [12]: Ionophoric activity across large unilamellar vesicles containing 95:5 egg yolk phosphatidylcholine and phosphatidylglycerol assessed as apparent first order rate constant for H+ transport at 2% of total concentration of lipids at 25 degC measured after 20 mins by HPTS-based fluorescence assay (reference value: 2 x 10^-4/s). The data set is classed as ADME.
For data set [13], the system named is Escherichia coli. Put plainly: Induction of inner membrane permeabilization of Escherichia coli ML-35 pYC constitutively expressing cytoplasmic beta-galactosidase/periplasmic beta-lastamase assessed as Gal-ONp hydrolysis at 64 uM by microplate reader analysis. The format is functional, organism-based.
Data set [14] can be described thus: Ionophoric activity across large unilamellar vesicles containing 95:5 egg yolk phosphatidylcholine and phosphatidylglycerol assessed as apparent first order rate constant for Na+ transport at 2% of total concentration of lipids at 25 degC measured every 30 mins over 14 hrs by 23Na+ NMR analysis. The format is ADME.
Data set [15] is described as follows: Ionophoric activity across large unilamellar vesicles containing 95:5 egg yolk phosphatidylcholine and phosphatidylglycerol assessed as apparent first order rate constant for Na+ transport at 3% of total concentration of lipids at 25 degC measured every 30 mins over 14 hrs by 23Na+ NMR analysis. The data set is classed as ADME.
Data set [16] is described as follows: Ionophoric activity across large unilamellar vesicles containing 95:5 egg yolk phosphatidylcholine and phosphatidylglycerol assessed as apparent first order rate constant for Na+ transport at 1.5% of total concentration of lipids at 25 degC measured every 30 mins over 14 hrs by 23Na+ NMR analysis. The data set is classed as ADME.
Data set [17] deals with Escherichia coli. Put plainly: Induction of inner membrane permeabilization of Escherichia coli ML-35 pYC constitutively expressing cytoplasmic beta-galactosidase/periplasmic beta-lastamase assessed as Gal-ONp hydrolysis at 256 uM by microplate reader analysis. The format is functional, organism-based.
For data set [18], the system named is Escherichia coli. Nature of the data set: Induction of outer membrane permeabilization of Escherichia coli ML-35 pYC constitutively expressing cytoplasmic beta-galactosidase/periplasmic beta-lastamase assessed as CENTA hydrolysis at 256 uM by microplate reader analysis. The data set is classed as functional, organism-based.
Data set [19] can be described thus: Ionophoric activity across large unilamellar vesicles containing 95:5 egg yolk phosphatidylcholine and phosphatidylglycerol assessed as apparent first order rate constant for Na+ transport at 0.5% of total concentration of lipids at 25 degC measured every 30 mins over 14 hrs by 23Na+ NMR analysis. The data set is classed as ADME.
Data set [20] in a line: Ionophoric activity across large unilamellar vesicles containing 95:5 egg yolk phosphatidylcholine and phosphatidylglycerol assessed as apparent first order rate constant for Na+ transport at 0.2% of total concentration of lipids at 25 degC measured every 30 mins over 14 hrs by 23Na+ NMR analysis. The format is ADME.

Converted amounts (≈) assume the structure as drawn. The source made the active and inactive calls. No cut-off for these calls is given here. Starred links: 1 amine or outer side, 2 acyl side, 3 side chain; linkers in the order of their positions; H or OH if unused. Non-standard residues stand in square brackets, D forms with d. Residues, ends and D or L forms follow the SMILES beside them. *: point of attachment. HN(CH2CH2O)5CH2CH2NH = C(COCCOCCOCCOCCOCCN[*:2])N[*:1]; X1 = O=C(c1ccc(OP(=O)(O)O)cc1)*; Spermine = NCCCNCCCCNCCCN*; Aib = CC(C)(N)C(=O)O

`CC(C)(NC(=O)c1ccc(OP(=O)(O)O)cc1)C(=O)NC(C)(C)C(=O)NC(C)(C)C(=O)NC(C)(C)C(=O)NC(C)(C)C(=O)NC(C)(C)C(=O)NC(C)(C)C(=O)NC(C)(C)C(=O)NCCCNCCCCNCCCN` (X1-[Aib][Aib][Aib][Aib][Aib][Aib][Aib][Aib]-Spermine): the MIC against Cryptococcus neoformans worked out at 16 µM (≈ 17.3 µg/mL); against Pseudomonas aeruginosa, 64 µM (≈ 69.3 µg/mL); with Candida albicans it was 32 µM (≈ 34.7 µg/mL); with Staphylococcus aureus [7], 32 µM (≈ 34.7 µg/mL); in the data set with Staphylococcus aureus [8] it was 16 µM (≈ 17.3 µg/mL); in the data set with Escherichia coli [11], 32 µM (≈ 34.7 µg/mL). For the same molecule, the Activity entry in [1] is on record as “Not Active”. Also, the Kapp in data set [2] is 3.62 ×10⁻² /s; in data set [3], 5.24 ×10⁻³ /s; in [5] it was 1.73 ×10⁻² /s; in [9], 6.77 ×10⁻² /s; in [10] it was 4.08 ×10⁻³ /s; in [12], 1.98 ×10⁻² /s. Moreover, the outcome in data set [4] was inactive. In addition, the outcome in the data set with Escherichia coli [6] and in the data set with Escherichia coli [13] was Active.

Take `CC(C)(NC(=O)c1ccc(OP(=O)(O)O)cc1)C(=O)NC(C)(C)C(=O)NC(C)(C)C(=O)NC(C)(C)C(=O)NC(C)(C)C(=O)NC(C)(C)C(=O)NC(C)(C)C(=O)NC(C)(C)C(=O)NCCOCCOCCOCCOCCOCCN` (X1-[Aib][Aib][Aib][Aib][Aib][Aib][Aib][Aib]-{HN(CH2CH2O)5CH2CH2NH}): the MIC with Cryptococcus neoformans, against Pseudomonas aeruginosa, against Candida albicans, against Staphylococcus aureus [7], in the data set on Staphylococcus aureus [8] and with Escherichia coli [11] was above 128 µM throughout. For the same molecule, the Kapp in data set [1] is 0.0063 min⁻¹; in [14] it was 0.0102 min⁻¹; in [2], 4.89 ×10⁻² /s; in [3], 7.71 ×10⁻³ /s; in data set [5], 1.78 ×10⁻² /s; in [15], 0.015 min⁻¹. The Kapp came out at 0.0078 min⁻¹ in data set [16]; 4.96 ×10⁻³ /s in [10]; 0.0037 min⁻¹ in data set [19]; 0.0017 min⁻¹ in [20]; 2.59 ×10⁻² /s in data set [12]. In addition, the outcome (in [4]; in the data set on Escherichia coli [17]; with Escherichia coli [18]) was inactive.

For the molecule `C[C@@H]1[C@H](O)[C@@H](C)/C=C/C=C/C=C/C=C/C=C/C=C/C=C/[C@H](O[C@@H]2O[C@H](C)[C@@H](O)[C@H](N)[C@@H]2O)C[C@@H]2O[C@](O)(C[C@@H](O)C[C@@H](O)[C@H](O)CC[C@@H](O)C[C@@H](O)CC(=O)O[C@H]1C)C[C@H](O)[C@H]2C(=O)O` [AMPHOTERICIN B], the result in data set [1] and in data set [3] was Active.

In the case of `CC(C)[C@@H](CC[C@@H](C)[C@H]1CC[C@H]2[C@@H]3[C@H](O)C[C@H]4C[C@@H](NCCCNCCCCN)CC[C@]4(C)[C@H]3CC[C@]12C)OS(=O)(=O)O` [SQUALAMINE], the MIC against Pseudomonas aeruginosa came out at 4 µM (≈ 2.51 µg/mL); against Candida albicans, 4 µM (≈ 2.51 µg/mL); against Staphylococcus aureus [8], 1 µM (≈ 0.628 µg/mL); against Escherichia coli [11], 1 µM (≈ 0.628 µg/mL).
